Like-named read-outs stand apart in the source and are kept apart here.
Key:
HIV-IIIb IN T174I BT = test: Antiviral assay in MT4 cells, HIV-IIIb IN T174I BT virus (from viral breakthrough); format: cell-based, HIV-1; conditions: Human immunodeficiency virus 1, IIIB, MT4, 120 h, read-out: T174I BT EC50, MT4 cells, HIV-IIIb IN T174I BT (viral breakthrough), 5 days, CellTiter-Glo
In short: (§1)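 Luminescence from CellTiter-Glo after a 5-day culture served as the measure of HIV-1 replication in MT4 cells. Cells were infected beforehand for 3 h with HIV-IIIb (0.004 m.o.i.) and exposed to ten 3-fold compound dilutions. EC50 corresponds to a 50% signal decrease.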

in vitro = conditions: human, microsomes
HIV-IIIb IN T174I DE = test: Antiviral assay in MT4 cells, HIV-IIIb IN T174I DE virus (from dose escalation passaging); format: cell-based, HIV-1; conditions: Human immunodeficiency virus 1, IIIB, MT4, 120 h, read-out: T174I DE EC50, MT4 cells, HIV-IIIb IN T174I DE (dose escalation), 5 days, CellTiter-Glo
In short: as §1

HIV-IIIb (wildtype) = test: Antiviral assay in MT4 cells, HIV-IIIb wildtype; format: cell-based, HIV-1; conditions: read-out: WT EC50
In short: as §1

[1] = Hum MS stability (human microsomal stability half-life); conditions: human microsomes
[2] = Human immunodeficiency virus 1, IIIB, MT4, 120 h

Structure (SMILES) | EC50 (HIV-IIIb IN T174I BT) [nM] | half-life (in vitro) [h] | EC50 (HIV-IIIb IN T174I DE) [nM] | EC50 (HIV-IIIb (wildtype); Human immunodeficiency virus 1, 120 h, MT4 cells, HIV-IIIb wildtype, 5 days, CellTiter-Glo) [nM] | EC50 (HIV-IIIb (wildtype); [2]) [nM] | half-life [1] [h]
Cc1cc2nc(-c3ccc4c(c3)c(C3CCN(C5CC5)CC3)nn4C)sc2c(-c2ccc(Cl)cc2)c1[C@H](OC(C)(C)C)C(=O)O [Compound 128, (S)-2-(tert-butoxy)-2-(7-(4-chloro-phenyl)-2-(3-(1-cyclopropylpiperidin-4-yl)-1-methyl-1H-indazol-5-yl)-5-methylbenzo[d]thiazol-6-yl) acetic acid] | 292 | 4.03 | 511 | 4 | – | –
Cc1cc2nc(-c3ccc4c(n3)c(C3CCN(C5COC5)CC3)nn4C)sc2c(-c2ccc(Cl)cc2)c1[C@H](OC(C)(C)C)C(=O)O [Compound 175, (S)-2-(tert-butoxy)-2-(7-(4-chloro-phenyl)-5-methyl-2-(1-methyl-3-(1-(oxetan-3-yl)piperidin-4-yl)-1H-pyrazolo [4,3-b]pyridin-5-yl)benzo[d]thiazol-6-yl) acetic acid] | 122 | – | 252 | – | 3 | 5.95
Cc1cc2nc(-c3ccc4c(n3)c(C3CCN(C5CN(C)C5)CC3)nn4C)sc2c(-c2ccc(Cl)cc2)c1[C@H](OC(C)(C)C)C(=O)O [Compound 184, (S)-2-(tert-butoxy)-2-(7-(4-chloro-phenyl)-5-methyl-2-(1-methyl-3-(1-(1-methylazetidin-3-yl)piperidin-4-yl)-1H-pyrazolo [4,3-b]pyridin-5-yl)benzo[d]thiazol-6-yl) acetic acid] | 103 | – | 218 | – | 4 | 0.767
CC(=O)N1CC(N2CCC(c3nn(C)c4ccc(-c5nc6cc(C)c([C@H](OC(C)(C)C)C(=O)O)c(-c7ccc(Cl)cc7)c6s5)nc34)CC2)C1 [Compound 185, (S)-2-(2-(3-(1-(1-acetylazetidin-3-yl)piperidin-4-yl)-1-methyl-1H-pyrazolo[4,3-b]pyridin-5-yl)-7-(4-chlorophenyl)-5-methylbenzo [d]thiazol-6-yl)-2-(tert-butoxy) acetic acid] | 35 | – | 66 | – | 1 | 0.6
Cc1cc2nc(-c3ccc4c(n3)c(C3CCN([C@H]5C[C@@H](O)C5)CC3)nn4C)sc2c(-c2ccc(Cl)cc2)c1[C@H](OC(C)(C)C)C(=O)O [Compound 188, (S)-2-(tert-butoxy)-2-(7-(4-chloro-phenyl)-2-(3-(1-((1s,3s)-3-hydroxy-cyclobutyl)piperidin-4-yl)-1-methyl-1H-pyrazolo[4,3-b]pyridin-5-yl)-5-methylbenzo[d]thiazol-6-yl) acetic acid] | 196 | – | 391 | – | 11 | 2.53
Cc1cc2nc(-c3ccc4c(n3)c(N3CCN([C@H]5C[C@@H](O)C5)CC3)nn4C)sc2c(-c2ccc(Cl)cc2)c1[C@H](OC(C)(C)C)C(=O)O [Compound 197, (S)-2-(tert-butoxy)-2-(7-(4-chloro-phenyl)-2-(3-(4-((1s,3s)-3-hydroxy-cyclobutyl)piperazin-1-yl)-1-methyl-1H-pyrazolo[4,3-b]pyridin-5-yl)-5-methylbenzo[d]thiazol-6-yl) acetic acid] | 936 | – | 2680 | – | 18 | 2.8

From patent publication US10800772B2 (Gilead Sciences, Inc., priority 2016, dated 2020)
